Structures can show the parent of a compound that is named as a salt.
Key:
albino rats = experiment: Antiparkinson activity (catalepsy produced by haloperidol); type: in vivo, Male Charles River albino rats; settings: for antiparkinson activity: summary in words
Procedure: Male Charles River albino rats, weighing 200-250 g, were used. Catalepsy was produced by haloperidol, 5 mg/kg i.p. The animals were placed with their front paws on a horizontal bar, about 10 cm above the ground, and animals were considered cataleptic if not changing posture for at least 30 sec. Cataleptic animals were injected i.p. with one of the drugs at a dose of 40-80 mg/kg. Catalepsy was estimated again at the intervals indicated.

[1] = test system: Leptospira canicola Kipod 146; experiment: Anti leptospiral activity (minimal inhibition concentration); type: cell-based; settings: for MIC: Leptospira interrogans, KIPOD146, 240 h; for anti leptospiral activity: summary in words
Procedure: The tests were carried out under the following conditions:
Leptospira: Leptospira canicola Kipod 146
Inoculum: 1-10^5 cells/ml
Incubation time: 10 days, 28° C.
Evaluation: Direct count in dark field microscopy after 4,7 and 10 days.
2 Minimal+0.5% albumin (Pentex)
3 Korthof rich medium with 8% serum.
4 Korthof rich medium with 2% serum.

L. tropica promastigotes = experiment: Anti leishmania test, promastigotes in vitro; type: cell-based; settings: 27° C.
Procedure: (§1) b. promastigotes in Mc Coy's medium in vitro at 27° C.
+++=No viable parasites after 24 hours
++=No viable parasites after 48 hours
+=No viable parasites after 72 hours
±=No viable parasites after 96 hours p2 -=viable parasites after 120 hours.

[2] = Toxic limit in the HSV replication test; settings: monkey, bsc-1 cells
HSV-1 (Herpes Simplex) = experiment: Inhibition test on HSV replication; type: cell-based; settings: Human alphaherpesvirus 1, BSC-1 cells, 10 PFU/cell; for inhibition at 25 µg/mL: 25 μg/ml; for inhibition at 50 µg/mL: 50 μg/ml, read-out: % Inhibition; for inhibition at 100 µg/mL: 100 μg/ml
Text: BSC-1 (Green monkey kidney)
**% Inhibition of control infected for some time with same virus PFV with […]

Leishmania = experiment: Anti leishmania tests, summary; type: cell-based, L. tropica; settings: summary in words
Procedure: (§2) a. amastigotes in peritoneal exudate cells in Mc Coy's medium in vitro at 37° C.
as §1

albino mice [3] = experiment: Stereotyped behaviour in mice; type: in vivo, Male ICR albino mice; set-up: stereotyped behaviour score / Total Score / Mean Score: scale not given here; settings: for stereotyped behaviour score / Mean Score / Total Score: 50 mg/kg i.p.; for Mean Score: mean of 4 mice; for stereotyped behaviour activity: summary in words
Procedure: Male ICR albino mice weighing 25-30 g were put in cages with a metal grid floor, 4 in each cage. Drugs were injected intraperitoneally and stereotyped behaviour (sniffing, biting, repetitive head movement) was evaluated every 30 min.

L. tropica amastigotes = experiment: Anti leishmania test, amastigotes in peritoneal exudate cells in vitro; type: cell-based; settings: 37° C.
Procedure: as §2
+++=clearance of all parasites in 24 hours
++=clearance of all parasites in 48 hours
+=clearance of all parasites in 72 hours
±=Partial clearance of parasites in 72 hours or more
-=No activity against parasites.

albino mice [4] = experiment: Stereotyped behaviour in mice; type: in vivo, Male ICR albino mice; set-up: scale not given here; settings: 50 mg/kg i.p.
[5] = test system: 4 mycoplasma (M. gallisepticum, M. capricolum, M. hominis, A. laidlawii); experiment: organism not typed; type: cell-based; settings: read-out: 50% inhibition of growth

SMILES: CN(N)C1C2CC3CC(C2)CC1C3 (stereo not shown) [Example 27, 1-(2'-Adamantyl)-1-methylhydrazine hydrochloride]
- anticataleptic effect (albino rats; 80 mg/kg i.p., rat 1): 3/4
- anticataleptic effect (albino rats; 80 mg/kg i.p., rat 2): 1/4
- anticataleptic effect (albino rats; 80 mg/kg i.p., rat 3): 2/4
- anticataleptic effect (albino rats; 80 mg/kg i.p., rat 4): 3/4
- anticataleptic effect (albino rats; 80 mg/kg i.p., rat 5): 4/4
- antiparkinson activity (albino rats): active
- MIC ([1]; Korthof + 8% serum): 50 µg/mL
- MIC ([1]; minimal + Pentex (0.5% albumin)): 6.25 µg/mL
- MIC ([1]; minimal medium): 3.12 µg/mL
- anti leptospiral activity [1]: active
- Leishmania promastigote activity score (L. tropica promastigotes; 100 μg): +++ (No viable parasites after 24 hours)
- MNTC [2]: 100 µg/mL
- inhibition at 25 µg/mL (HSV-1 (Herpes Simplex)): 46%
- inhibition at 50 µg/mL (HSV-1 (Herpes Simplex)): 81%
- inhibition at 100 µg/mL (HSV-1 (Herpes Simplex)): 100%
- activity against Leishmania (Leishmania): active
- stereotyped behaviour score (albino mice [3]; 0 min, mouse 1): 0
- stereotyped behaviour score (albino mice [3]; 0 min, mouse 2): 0
- stereotyped behaviour score (albino mice [3]; 0 min, mouse 3): 0
- stereotyped behaviour score (albino mice [3]; 0 min, mouse 4): 0
- stereotyped behaviour score (albino mice [3]; 30 min, mouse 1): 0
- stereotyped behaviour score (albino mice [3]; 30 min, mouse 2): 0
- stereotyped behaviour score (albino mice [3]; 30 min, mouse 3): 1
- stereotyped behaviour score (albino mice [3]; 30 min, mouse 4): 0
- stereotyped behaviour score (albino mice [3]; 45 min, mouse 3): 1
- stereotyped behaviour score (albino mice [3]; 45 min, mouse 4): 1
- stereotyped behaviour score (albino mice [3]; 60 min, mouse 1): 2
- stereotyped behaviour score (albino mice [3]; 60 min, mouse 2): 2
- stereotyped behaviour score (albino mice [3]; 60 min, mouse 3): 2
- stereotyped behaviour score (albino mice [3]; 60 min, mouse 4): 2
- stereotyped behaviour score (albino mice [3]; 90 min, mouse 1): 2
- stereotyped behaviour score (albino mice [3]; 90 min, mouse 2): 2
- stereotyped behaviour score (albino mice [3]; 90 min, mouse 3): 2
- stereotyped behaviour score (albino mice [3]; 90 min, mouse 4): 2
- stereotyped behaviour score (albino mice [3]; 120 min, mouse 1): 1
- stereotyped behaviour score (albino mice [3]; 120 min, mouse 2): 1
- stereotyped behaviour score (albino mice [3]; 120 min, mouse 3): 0
- stereotyped behaviour score (albino mice [3]; 120 min, mouse 4): 0
- stereotyped behaviour score (albino mice [3]; 135 min, mouse 1): 1
- stereotyped behaviour score (albino mice [3]; 135 min, mouse 2): 1
- stereotyped behaviour score (albino mice [3]; 150 min, mouse 1): 1
- stereotyped behaviour score (albino mice [3]; 150 min, mouse 2): 1
- stereotyped behaviour score (albino mice [3]; 150 min, mouse 3): 0
- stereotyped behaviour score (albino mice [3]; 150 min, mouse 4): 0
- stereotyped behaviour score (albino mice [3]; 180 min, mouse 1): 0
- stereotyped behaviour score (albino mice [3]; 180 min, mouse 2): 0
- stereotyped behaviour score (albino mice [3]; 180 min, mouse 3): 0
- stereotyped behaviour score (albino mice [3]; 180 min, mouse 4): 0
- stereotyped behaviour score (albino mice [3]; 210 min, mouse 1): 0
- stereotyped behaviour score (albino mice [3]; 210 min, mouse 2): 1
- stereotyped behaviour score (albino mice [3]; 210 min, mouse 3): 0
- stereotyped behaviour score (albino mice [3]; 210 min, mouse 4): 0
- stereotyped behaviour score (albino mice [3]; 240 min, mouse 1): 0
- stereotyped behaviour score (albino mice [3]; 240 min, mouse 2): 0
- stereotyped behaviour score (albino mice [3]; 240 min, mouse 3): 0
- stereotyped behaviour score (albino mice [3]; 240 min, mouse 4): 0
- Mean Score (albino mice [3]): 6.5
- Total Score (albino mice [3]; mouse 1): 7
- Total Score (albino mice [3]; mouse 2): 9
- Total Score (albino mice [3]; mouse 3): 6
- Total Score (albino mice [3]; mouse 4): 5
- stereotyped behaviour activity (albino mice [3]): active
- Leishmania amastigote activity score (L. tropica amastigotes; 10 μg): ± (Partial clearance of parasites in 72 hours or more)
- Leishmania amastigote activity score (L. tropica amastigotes; 100 μg): ++ (clearance of all parasites in 48 hours)
- stereotyped behaviour score (albino mice [4]; 45 min, mouse 1): 0
- stereotyped behaviour score (albino mice [4]; 45 min, mouse 2): 1
- stereotyped behaviour score (albino mice [4]; 135 min, mouse 3): 0
- stereotyped behaviour score (albino mice [4]; 135 min, mouse 4): 0

SMILES: O=C(O)CNNC1C2CC3CC(C2)CC1C3 (stereo not shown) [Example 36, [2-(2'-adamantyl)hydrazino]acetic acid hydrochloride]
- anticataleptic effect (albino rats; 80 mg/kg i.p., rat 1): 2/4
- anticataleptic effect (albino rats; 80 mg/kg i.p., rat 2): 1/4
- anticataleptic effect (albino rats; 80 mg/kg i.p., rat 3): 3/4
- anticataleptic effect (albino rats; 80 mg/kg i.p., rat 4): 2/4
- anticataleptic effect (albino rats; 80 mg/kg i.p., rat 5): 0/4
- antiparkinson activity (albino rats): active
- Leishmania promastigote activity score (L. tropica promastigotes; 100 μg): ++ (No viable parasites after 48 hours)
- MNTC [2]: 200 µg/mL
- inhibition at 50 µg/mL (HSV-1 (Herpes Simplex)): 0%
- inhibition at 100 µg/mL (HSV-1 (Herpes Simplex)): 0%
- inhibition at 200 µg/mL (HSV-1 (Herpes Simplex); 200 μg/ml): 98%
- activity against Leishmania (Leishmania): active
- Leishmania amastigote activity score (L. tropica amastigotes; 100 μg): ++ (clearance of all parasites in 48 hours)

SMILES: C1CCN(NC2C3CC4CC(C3)CC2C4)CC1 (stereo not shown) [Example 10, 1-(2'-Adamantylamino)piperidine hydrochloride]
- Mean maximal effect (albino rats; 80 mg/kg i.p., mean of 5 rats): 1/4
- anticataleptic effect (albino rats; 80 mg/kg i.p., rat 1): 0/4
- anticataleptic effect (albino rats; 80 mg/kg i.p., rat 2): 1/4
- anticataleptic effect (albino rats; 80 mg/kg i.p., rat 3): 0/4
- anticataleptic effect (albino rats; 80 mg/kg i.p., rat 4): 1/4
- anticataleptic effect (albino rats; 80 mg/kg i.p., rat 5): 3/4
- antiparkinson activity (albino rats): active
- MIC ([1]; Korthof + 8% serum): 100 µg/mL
- MIC ([1]; minimal medium): 12.5 µg/mL
- anti leptospiral activity [1]: active
- IC50 [5]: 5 to 30 µg/mL
- MNTC [2]: 50 µg/mL
- inhibition at 10 µg/mL (HSV-1 (Herpes Simplex); 10 μg/ml): 50%
- inhibition at 25 µg/mL (HSV-1 (Herpes Simplex)): 40%
- inhibition at 50 µg/mL (HSV-1 (Herpes Simplex)): 96%
- stereotyped behaviour score (albino mice [3]; 0 min, mouse 1): 0
- stereotyped behaviour score (albino mice [3]; 0 min, mouse 2): 0
- stereotyped behaviour score (albino mice [3]; 0 min, mouse 3): 0
- stereotyped behaviour score (albino mice [3]; 0 min, mouse 4): 0
- stereotyped behaviour score (albino mice [3]; 30 min, mouse 1): 1
- stereotyped behaviour score (albino mice [3]; 30 min, mouse 2): 1
- stereotyped behaviour score (albino mice [3]; 30 min, mouse 3): 1
- stereotyped behaviour score (albino mice [3]; 30 min, mouse 4): 1
- stereotyped behaviour score (albino mice [3]; 45 min, mouse 3): 1
- stereotyped behaviour score (albino mice [3]; 45 min, mouse 4): 0
- stereotyped behaviour score (albino mice [3]; 60 min, mouse 1): 1
- stereotyped behaviour score (albino mice [3]; 60 min, mouse 2): 1
- stereotyped behaviour score (albino mice [3]; 60 min, mouse 3): 1
- stereotyped behaviour score (albino mice [3]; 60 min, mouse 4): 1
- stereotyped behaviour score (albino mice [3]; 90 min, mouse 1): 1
- stereotyped behaviour score (albino mice [3]; 90 min, mouse 2): 1
- stereotyped behaviour score (albino mice [3]; 90 min, mouse 3): 1
- stereotyped behaviour score (albino mice [3]; 90 min, mouse 4): 1
- stereotyped behaviour score (albino mice [3]; 120 min, mouse 1): 0
- stereotyped behaviour score (albino mice [3]; 120 min, mouse 2): 0
- stereotyped behaviour score (albino mice [3]; 120 min, mouse 3): 0
- stereotyped behaviour score (albino mice [3]; 120 min, mouse 4): 0
- stereotyped behaviour score (albino mice [3]; 135 min, mouse 1): 0
- stereotyped behaviour score (albino mice [3]; 135 min, mouse 2): 0
- stereotyped behaviour score (albino mice [3]; 150 min, mouse 1): 0
- stereotyped behaviour score (albino mice [3]; 150 min, mouse 2): 0
- stereotyped behaviour score (albino mice [3]; 150 min, mouse 3): 0
- stereotyped behaviour score (albino mice [3]; 150 min, mouse 4): 0
- stereotyped behaviour score (albino mice [3]; 180 min, mouse 1): 1
- stereotyped behaviour score (albino mice [3]; 180 min, mouse 2): 1
- stereotyped behaviour score (albino mice [3]; 180 min, mouse 3): 0
- stereotyped behaviour score (albino mice [3]; 180 min, mouse 4): 0
- stereotyped behaviour score (albino mice [3]; 210 min, mouse 1): 1
- stereotyped behaviour score (albino mice [3]; 210 min, mouse 2): 0
- stereotyped behaviour score (albino mice [3]; 210 min, mouse 3): 0
- stereotyped behaviour score (albino mice [3]; 210 min, mouse 4): 0
- stereotyped behaviour score (albino mice [3]; 240 min, mouse 1): 0
- stereotyped behaviour score (albino mice [3]; 240 min, mouse 2): 0
- stereotyped behaviour score (albino mice [3]; 240 min, mouse 3): 0
- stereotyped behaviour score (albino mice [3]; 240 min, mouse 4): 0
- Mean Score (albino mice [3]): 4.75
- Total Score (albino mice [3]; mouse 1): 6
- Total Score (albino mice [3]; mouse 2): 6
- Total Score (albino mice [3]; mouse 3): 4
- Total Score (albino mice [3]; mouse 4): 3
- stereotyped behaviour activity (albino mice [3]): active
- stereotyped behaviour score (albino mice [4]; 45 min, mouse 1): 1
- stereotyped behaviour score (albino mice [4]; 45 min, mouse 2): 2
- stereotyped behaviour score (albino mice [4]; 135 min, mouse 3): 0
- stereotyped behaviour score (albino mice [4]; 135 min, mouse 4): 0

SMILES: c1ccc(CN2CCN(NC3C4CC5CC(C4)CC3C5)CC2)cc1 (stereo not shown) [Example 16, 1-(2'-Adamantylamino)-4-benzylpiperazine dihydrochloridemonohydrate]
- Leishmania promastigote activity score (L. tropica promastigotes; 10 μg): +++ (No viable parasites after 24 hours)
- Leishmania promastigote activity score (L. tropica promastigotes; 100 μg): +++ (No viable parasites after 24 hours)
- IC50 [5]: 5 to 30 µg/mL
- activity against Leishmania (Leishmania): active

SMILES: c1ccc(CCNNC2C3CC4CC(C3)CC2C4)cc1 (stereo not shown) [Example 2, 1-(2'-Adamantyl)-2-phenethylhydrazine hydrochloride]
- IC50 [5]: 5 to 30 µg/mL

From patent publication US4254128A, “2-Adamantyl hydrazines and biocidal compositions thereof” (Teva Pharmaceutical Industries Ltd., priority 1977, dated 1981)
